Patent publication US11117891B2, “Isoquinolin and naphthydrin compounds” (Eli Lilly and Company, priority 2017, dated 2021)

Key:
human ASK1 = human ASK1 (Homo sapiens (Human), UniProt Q99683); assay: ASK1 autophosphorylation (Thr838) assay in HEK293 cells overexpressing human ASK1; type: cell-based; conditions: for IC50: H2O2-stimulated (1 mM, 10 min) ASK1 autophosphorylation at Thr838, HEK293 cells, HTRF, mean ± standard deviation, read-out: HEK pASK1 IC50; for Efficacy (%): HEK pASK1 assay, relative to standard inhibitor (100%) and DMSO vehicle (0%)
[1] = biological target: recombinant human ASK1 (hASK1) catalytic domain (Homo sapiens (Human), UniProt Q99683); assay: ASK1 enzymatic assay (ADP-Glo Kinase Assay); type: biochemical; conditions: for IC50: ADP production, MKK6 300 nM substrate, ATP 100 uM, mean ± standard deviation; for Efficacy (%): hASK1 enzymatic assay, relative to standard inhibitor (100%) and DMSO vehicle (0%)
Description: The purpose of this assay is to determine the effect of ASK1 inhibitors on the production of ADP by ASK1. The recombinant human ASK1 (hASK1) catalytic domain tagged with Glutathione S-transferase is used, and histidine-tagged full-length human MAP kinase kinase 6 (MKK6) and ATP are the substrate and cofactor, respectively.
The assay is done using an ADP-Glo™ Kinase Assay Kit (Promega, Catalog #V9102) according to the manufacturer's protocol with the following modifications. Briefly, hASK1 (0.25 nM) and MKK6 (300 nM) in a buffer (10 mM MOPS pH 7.0; 10 mM Mg-Acetate; 1 mM DTT; 0.025% NP-40; 0.05% BSA; 1.5% glycerol) are incubated with ASK1 inhibitors at varying concentrations ranging from 10.00 uM to 0.17 nM for 15 minutes, followed by incubation with ATP (100 uM) for 30 minutes at room temperature. ADP-Glo™ Reagent is added to terminate the kinase reaction and deplete the remaining ATP. The Kinase Detection Reagent is then added to convert ADP to ATP. The newly synthesized ATP is measured using a luciferase/luciferin reaction, and the luminescence determined by Envision (PerkinElmer). The luminescence intensities are analyzed by GeneData, and fit to a 4 parameter dose response-inhibitor logistics curve to determine IC50 values, using the effects of 5-(4-cyclopropyl-1H-imidazol-1-yl)-2-fluoro-4-methyl-N-{6-[4-(propan-2-yl)-4H-1,2,4-triazol-3-yl]pyridin-2-yl}benzamide as a standard and DMSO vehicle for 100% and 0% inhibition, respectively.

Chain of recombinant human ASK1 (hASK1) catalytic domain (Q99683 680-938): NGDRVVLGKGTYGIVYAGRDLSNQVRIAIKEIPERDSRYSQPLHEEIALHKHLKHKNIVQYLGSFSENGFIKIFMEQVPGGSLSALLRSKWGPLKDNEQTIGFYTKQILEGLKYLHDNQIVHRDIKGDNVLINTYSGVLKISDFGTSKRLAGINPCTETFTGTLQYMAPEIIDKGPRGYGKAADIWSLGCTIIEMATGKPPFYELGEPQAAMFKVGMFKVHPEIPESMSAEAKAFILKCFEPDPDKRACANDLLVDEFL
Chain of human ASK1 (Q99683 whole entry, the tested form may be a part): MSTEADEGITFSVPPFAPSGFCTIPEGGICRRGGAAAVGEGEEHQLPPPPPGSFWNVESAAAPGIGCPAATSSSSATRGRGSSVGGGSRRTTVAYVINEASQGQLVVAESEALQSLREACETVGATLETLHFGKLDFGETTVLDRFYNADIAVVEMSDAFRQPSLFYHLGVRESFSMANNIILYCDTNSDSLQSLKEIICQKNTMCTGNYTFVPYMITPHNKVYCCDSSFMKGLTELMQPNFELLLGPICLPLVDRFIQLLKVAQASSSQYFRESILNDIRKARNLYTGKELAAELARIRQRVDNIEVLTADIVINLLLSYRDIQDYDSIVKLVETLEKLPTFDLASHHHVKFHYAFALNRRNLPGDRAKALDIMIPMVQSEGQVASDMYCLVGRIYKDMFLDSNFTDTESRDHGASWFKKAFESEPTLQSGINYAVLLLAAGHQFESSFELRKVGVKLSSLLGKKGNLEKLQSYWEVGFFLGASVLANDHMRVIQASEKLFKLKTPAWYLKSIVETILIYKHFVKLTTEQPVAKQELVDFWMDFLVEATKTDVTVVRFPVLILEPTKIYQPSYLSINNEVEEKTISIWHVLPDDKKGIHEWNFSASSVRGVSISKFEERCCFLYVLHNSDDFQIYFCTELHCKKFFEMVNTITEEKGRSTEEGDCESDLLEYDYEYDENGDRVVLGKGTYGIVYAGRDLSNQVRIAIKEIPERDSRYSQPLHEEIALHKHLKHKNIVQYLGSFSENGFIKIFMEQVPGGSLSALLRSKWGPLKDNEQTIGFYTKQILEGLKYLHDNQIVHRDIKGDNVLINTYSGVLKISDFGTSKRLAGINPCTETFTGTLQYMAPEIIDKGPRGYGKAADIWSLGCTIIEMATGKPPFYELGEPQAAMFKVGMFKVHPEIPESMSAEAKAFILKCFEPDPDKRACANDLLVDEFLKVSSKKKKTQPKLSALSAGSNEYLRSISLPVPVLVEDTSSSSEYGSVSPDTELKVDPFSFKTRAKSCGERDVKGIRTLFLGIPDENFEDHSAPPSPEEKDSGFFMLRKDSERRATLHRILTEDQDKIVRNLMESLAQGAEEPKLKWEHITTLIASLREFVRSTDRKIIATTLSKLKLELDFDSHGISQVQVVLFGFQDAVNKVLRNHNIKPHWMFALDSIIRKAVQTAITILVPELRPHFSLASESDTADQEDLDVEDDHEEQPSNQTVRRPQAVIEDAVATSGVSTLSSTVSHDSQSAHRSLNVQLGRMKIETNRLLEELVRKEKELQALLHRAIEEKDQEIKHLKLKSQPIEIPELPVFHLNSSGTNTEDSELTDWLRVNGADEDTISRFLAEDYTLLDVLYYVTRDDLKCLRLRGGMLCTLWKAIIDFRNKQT

Row | IC50 (human ASK1) [nM] | Efficacy (%) (human ASK1) | IC50 [1] [nM] | Efficacy (%) [1] [%] | SMILES
1 | 38.6 ± 2.4 | 107 | 3.6 ± 0.8 | 101 | Cc1cc2c(cc1-c1cnn(C(C)C)c1)C(=O)N(c1cccc(-c3nncn3C(C)C)n1)CC2 [Example 1, 7-(1-Isopropylpyrazol-4-yl)-2-[6-(4-isopropyl-1,2,4-triazol-3-yl)-2-pyridyl]-6-methyl-3,4-dihydroisoquinolin-1-one]
2 | 13.1 ± 2.8 | 103 | 1.8 ± 0.4 | 100.5 | Cc1cc2c(cc1-n1cnc(C3CC3)c1)C(=O)N(c1cccc(-c3nncn3C(C)C)n1)CC2 [Example 2, 7-(4-Cyclopropylimidazol-1-yl)-2-[6-(4-isopropyl-1,2,4-triazol-3-yl)-2-pyridyl]-6-methyl-3,4-dihydroisoquinolin-1-one]
3 | 31.5 ± 6.6 | 107 | 3.8 ± 0.9 | 100.1 | CC(C)n1cnnc1-c1cccc(N2CCc3ncc(-n4cnc(C5CC5)c4)cc3C2=O)n1.Cl [Example 3, 3-(4-Cyclopropylimidazol-1-yl)-6-[6-(4-isopropyl-1,2,4-triazol-3-yl)-2-pyridyl]-7,8-dihydro-1,6-naphthyridin-5-one; hydrochloride]
4 | 41.9 ± 0.5 | 105 | 4.2 ± 0.8 | 99.8 | CC(C)n1cc(-c2cnc3c(c2)C(=O)N(c2cccc(-c4nncn4C(C)C)n2)CC3)cn1 [Example 4, 3-(1-Isopropylpyrazol-4-yl)-6-[6-(4-isopropyl-1,2,4-triazol-3-yl)-2-pyridyl]-7,8-dihydro-1,6-naphthyridin-5-one]
